According to EP4700023A1, “GLP-1R RECEPTOR AGONIST COMPOUND SALT AND CRYSTAL FORM THEREOF, PREPARATION METHOD THEREFOR AND USE THEREOF” (Chengdu Vincentage Pharma Co., Ltd., priority 2023, dated 2024):
Counter-ions that a name gives are not always drawn.

How the values were obtained:
[1] = Tableting and grinding test (XRPD, FIG. 21 to 25); assay type: physicochemical
Protocol: Grindability test: An appropriate amount of the crystal compound to be tested was placed in a mortar and ground for 2 min and 5 min, followed by XRPD detection. […]

[2] = Hygroscopicity test method (DVS); assay type: physicochemical; set-up: Sorption / Desorption / Hysteresis: unit not given here; settings: for Hygroscopicity (80% RH) / Hygroscopicity (80% RH), description in words: 25°C, DVS; for Desorption / Sorption / Hysteresis: onset temperature 24.9°C
Protocol: Hygroscopicity test method (DVS): The hygroscopicity of the sample was measured using SMS Intrinsic Plus. The sample was weighed into a sample pan, equilibrated at 25°C until dm/dt was less than 0.002%, and then measured in time mode. The humidity was adjusted from 60%-90%-0%-90%-0% RH, with increments of 10% RH per step, and each humidity level was maintained for 1 hour.

[3] = Purity test after storage in an oven at set temperature (stability); assay type: physicochemical; settings: HPLC; for Purity, Onset: Onset (before storage)
Protocol: Purity test: The sample to be tested was dissolved in a methanol solution, and the sample purity was measured by HPLC.

[4] = Grindability test (mortar, XRPD detection); assay type: physicochemical; settings: for Grindability (mortar 5 min), solid form: XRPD
Protocol: Grindability test: An appropriate amount of the crystal compound to be tested was placed in a mortar and ground for 2 min and 5 min, followed by XRPD detection.

[5] = Compressibility test (tableting, XRPD detection); assay type: physicochemical; settings: compressed into tablets
[6] = Pharmacokinetic evaluation in rats; assay type: in vivo; settings: Rat PK, 10 mg/kg
Protocol: Rats were used as test animals, and the plasma drug concentrations at different time points after gavage administration of the test sample were measured. The pharmacokinetic behavior of the compound of the present disclosure in rats was studied to evaluate its metabolic characteristics. For each experimental group, 3 rats with similar body weights were selected and orally administered a single dose of 10 mg/kg. […] Pharmacokinetic parameter calculations were performed using metabolic kinetic data analysis software WinNonlin 7.0 by non-compartmental analysis (NCA) based on plasma concentration data.
A test sample with a final preparation concentration (based on the content of the compound of formula I) of 1.0 mg/mL was prepared for oral administration, using a 0.5% CMC Na aqueous solution as the preparation solvent.
Administration: After overnight fasting (12 hours), rats were administered by gavage at a dose of 10 mg/kg.
The blood samples were placed in heparinized sample tubes, and centrifuged at 4°C and 3500 rpm for 10 minutes to separate plasma, which was then stored at -20°C. Food was provided 2 hours after administration.
Determination of the content of the compound to be tested in rat plasma after gavage administration: After thawing plasma samples at room temperature, 300 µL of internal standard (terfenadine 200 ng/mL, acetonitrile) was added to each sample. The mixtures were vortexed for 1 min and then centrifuged at 4°C and 15400 rpm for 10 min. The supernatant was diluted 20-fold with 80% acetonitrile-water and then injected for LC/MS/MS analysis.

[7] = Purity test after storage in an oven at set temperature (stability); assay type: physicochemical; settings: 80°C, 1 day
[8] = after tableting, after grinding for 5 minutes and for 2 minutes, FIG. 21 to 23
[9] = Target humidity 0.0 % P/P0, first cycle
[10] = Target humidity 10.0 % P/P0, first cycle
[11] = Target humidity 20.0 % P/P0, first cycle
[12] = Target humidity 30.0 % P/P0, first cycle
[13] = Target humidity 40.0 % P/P0, first cycle
[14] = Target humidity 50.0 % P/P0, first cycle
[15] = Target humidity 60.0 % P/P0, first cycle
[16] = Target humidity 70.0 % P/P0, first cycle
[17] = Target humidity 80.0 % P/P0, first cycle
[18] = Target humidity 90.0 % P/P0, first cycle
[19] = Cycle 2, target humidity 0.0 % P/P0
[20] = Cycle 2, target humidity 10.0 % P/P0
[21] = Cycle 2, target humidity 20.0 % P/P0
[22] = Cycle 2, target humidity 30.0 % P/P0
[23] = Cycle 2, target humidity 40.0 % P/P0
[24] = Cycle 2, target humidity 50.0 % P/P0
[25] = Cycle 2, target humidity 60.0 % P/P0
[26] = Cycle 2, target humidity 70.0 % P/P0
[27] = Cycle 2, target humidity 80.0 % P/P0
[28] = Cycle 2, target humidity 90.0 % P/P0

**Q.** What does the source list for `O=C(O)c1ccc2nc(CN3CCC(c4ccccc4OCc4ccc(Cl)cc4F)CC3)n(C[C@@H]3CCO3)c2c1` [Crystal form I of the compound of formula I] [(S)-2-((4-(2-((4-Chloro-2-fluorobenzyl)oxy)phenyl)piperidin-1-yl)methyl)-1-(oxetan-2-aminomethyl)-1H-benzo[d]imidazole-6-carboxylic acid]?
**A.** Crystallinity after tableting and grinding [1, 8]: decreasing crystallinity in different degrees; Hygroscopicity (80% RH) [2]: 2.5%; Hygroscopicity (80% RH), description in words [2]: highly hygroscopic; Desorption [2, 9]: 0.013; Sorption [2, 9]: 0.019; Desorption [2, 10]: 0.807; Hysteresis [2, 10]: 0.042; Sorption [2, 10]: 0.766; Desorption [2, 11]: 1.307; Hysteresis [2, 11]: 0.035; Sorption [2, 11]: 1.271; Desorption [2, 12]: 1.588; Hysteresis [2, 12]: 0.047; Sorption [2, 12]: 1.541; Desorption [2, 13]: 1.816; Hysteresis [2, 13]: 0.062; Sorption [2, 13]: 1.754; Desorption [2, 14]: 2.072; Hysteresis [2, 14]: 0.112; Sorption [2, 14]: 1.960; Desorption [2, 15]: 2.286; Hysteresis [2, 15]: 0.125; Sorption [2, 15]: 2.161; Desorption [2, 16]: 2.441; Hysteresis [2, 16]: 0.097; Sorption [2, 16]: 2.344; Desorption [2, 17]: 2.576; Hysteresis [2, 17]: 0.065; Sorption [2, 17]: 2.511; Desorption [2, 18]: 2.685; Sorption [2, 18]: 2.685; Purity, Onset [3]: 99.27%; Purity, 80°C (1 day) ([3]; oven): 91.81%; Grindability (mortar 5 min), purity [4]: 99.25%; Grindability (mortar 5 min), solid form [4]: transformed to amorphous; Compressibility (20 Mp) [5]: Crystal form I, significant reduction in crystallinity

**Q.** Which results are given for `O=C(O)c1ccc2nc(CN3CCC(c4ccccc4OCc4ccc(Cl)cc4F)CC3)n(C[C@@H]3CCO3)c2c1` [Crystal form A of the monohydrate of the 2-amino-2-(hydroxymethyl)-1,3-propanediol salt of (S)-2-((4-(2-((4-chloro-2-fluorobenzyl)oxy)phenyl)piperidin-1-yl)methyl)-1-(oxetan-2-aminomethyl)-1H-benzo[d]imidazole-6-carboxylate]?
**A.** AUC(0-inf) ([6]; in vivo, oral (PO)): 772 ng·h/mL; AUC(0-t) ([6]; in vivo, oral (PO)): 765 ng·h/mL; Cmax ([6]; in vivo, oral (PO)): 410 ng/mL; Tmax ([6]; in vivo, oral (PO)): 0.41 h; half-life ([6]; in vivo, oral (PO)): 1.59 h

**Q.** For `O=C([O-])c1ccc2nc(CN3CCC(c4ccccc4OCc4ccc(Cl)cc4F)CC3)n(C[C@@H]3CCO3)c2c1.[Na+]` [Sodium salt of the compound of formula I, Sodium salt of (S)-2-((4-(2-((4-chloro-2-fluorobenzyl)oxy)phenyl)piperidin-1-yl)methyl)-1-(oxetan-2-aminomethyl)-1H-benzo[d]imidazole-6-carboxylate], which “Hygroscopicity (80% RH), description in words” value [2] is on record?
**A.** The value was “Highly hygroscopic, deliquescent”.

**Q.** What does the source list for `O=C(O)c1ccc2nc(CN3CCC(c4ccccc4OCc4ccc(Cl)cc4F)CC3)n(C[C@@H]3CCO3)c2c1` [Crystal form III of the compound of formula I] [(S)-2-((4-(2-((4-Chloro-2-fluorobenzyl)oxy)phenyl)piperidin-1-yl)methyl)-1-(oxetan-2-aminomethyl)-1H-benzo[d]imidazole-6-carboxylic acid]?
**A.** Crystallinity after tableting and grinding [1, 8]: decreasing crystallinity in different degrees; Purity, Onset [3]: 99.25%; Purity, 80°C (1 day) ([3]; oven): 83.43%; Grindability (mortar 5 min), purity [4]: 98.65%; Grindability (mortar 5 min), solid form [4]: transformed to amorphous; Compressibility (20 Mp) [5]: Crystal form III, no significant reduction in crystallinity; Solid form after 80°C (1 day) [7]: transformed to amorphous

**Q.** With `O=C(O)c1ccc2nc(CN3CCC(c4ccccc4OCc4ccc(Cl)cc4F)CC3)n(C[C@@H]3CCO3)c2c1` [Crystal form II of the compound of formula I] [(S)-2-((4-(2-((4-Chloro-2-fluorobenzyl)oxy)phenyl)piperidin-1-yl)methyl)-1-(oxetan-2-aminomethyl)-1H-benzo[d]imidazole-6-carboxylic acid] as the compound, how does the “Crystallinity after tableting and grinding” value [1, 8] read?
**A.** Its value is “decreasing crystallinity in different degrees”.

**Q.** What about the “Purity, Onset” value [3] of the same compound?
**A.** The value was 99.73%.

**Q.** What about the “Purity, 80°C (1 day)” value ([3]; oven) of the same compound?
**A.** The value was 80.43%.

**Q.** And the “Grindability (mortar 5 min), purity” value [4]?
**A.** The value was 99.7%.

**Q.** And the “Grindability (mortar 5 min), solid form” value [4]?
**A.** Its value is “transformed to amorphous”.

**Q.** What about the “Compressibility (20 Mp)” value [5] of the same compound?
**A.** Its value is “Crystal form II, significant reduction in crystallinity”.

**Q.** What about the “Solid form after 80°C (1 day)” value [7] of the same compound?
**A.** The value was “transformed to amorphous”.

**Q.** Which results are given for `O=C(O)c1ccc2nc(CN3CCC(c4ccccc4OCc4ccc(Cl)cc4F)CC3)n(C[C@@H]3CCO3)c2c1` [Crystal form A of the monohydrate of the compound of formula] [Crystal form A of the monohydrate of the 2-amino-2-(hydroxymethyl)-1,3-propanediol salt of (S)-2-((4-(2-((4-chloro-2-fluorobenzyl)oxy)phenyl)piperidin-1-yl)methyl)-1-(oxetan-2-aminomethyl)-1H-benzo[d]imidazole-6-carboxylate]?
**A.** Crystallinity after tableting and grinding ([1]; first and second tableting at 20 MPa, tableting at 40 MPa, grinding for 1, 3 and 5 minutes, FIG. 24, 25): basically stable; Hygroscopicity (80% RH) [2]: 0.34%; Hygroscopicity (80% RH), description in words [2]: Slightly hygroscopic; Desorption [2, 19]: 0.0112; Sorption [2, 19]: 0.0000; Desorption [2, 20]: 0.1186; Hysteresis [2, 20]: 0.0161; Sorption [2, 20]: 0.1025; Desorption [2, 21]: 0.1641; Hysteresis [2, 21]: 0.0175; Sorption [2, 21]: 0.1466; Desorption [2, 22]: 0.1996; Hysteresis [2, 22]: 0.0182; Sorption [2, 22]: 0.1814; Desorption [2, 23]: 0.2286; Hysteresis [2, 23]: 0.0145; Sorption [2, 23]: 0.2141; Desorption [2, 24]: 0.2611; Hysteresis [2, 24]: 0.0167; Sorption [2, 24]: 0.2443; Desorption [2, 25]: 0.2923; Hysteresis [2, 25]: 0.0177; Sorption [2, 25]: 0.2746; Desorption [2, 26]: 0.3219; Hysteresis [2, 26]: 0.0176; Sorption [2, 26]: 0.3043; Desorption [2, 27]: 0.3457; Hysteresis [2, 27]: 0.0099; Sorption [2, 27]: 0.3458; Desorption [2, 28]: 0.3759; Sorption [2, 28]: 0.3759; Desorption [2, 9]: 0.0000; Desorption [2, 10]: 0.1080; Desorption [2, 11]: 0.1542; Desorption [2, 12]: 0.1894; Desorption [2, 13]: 0.2213; Desorption [2, 14]: 0.2553; Desorption [2, 15]: 0.2989; Hysteresis [2, 15]: 0.0002; Sorption [2, 15]: 0.2896; Desorption [2, 16]: 0.3213; Hysteresis [2, 16]: 0.0053; Sorption [2, 16]: 0.3160; Desorption [2, 17]: 0.3490; Hysteresis [2, 17]: 0.0064; Sorption [2, 17]: 0.3426; Desorption [2, 18]: 0.3817; Sorption [2, 18]: 0.3817; Oral absorption ([6]; compared with the free acid): significantly better oral absorption than the compound of formula I (free acid); Purity, 2 to 8°C (6 months) ([3]; 2 to 8°C, 6 months): 99.90%; Purity, Onset [3]: 99.95%; Purity, 60°C (7 day) ([3]; oven, 60°C, 7 day): 99.90%; Purity, 80°C (1 day) ([3]; oven): 99.35%; Grindability (mortar 5 min), purity change [4]: purity unchanged; Grindability (mortar 5 min), solid form [4]: Crystalline form unchanged; Compressibility (20 Mp) [5]: Crystal form unchanged; Solid form after 80°C (1 day) [7]: retained the crystal form
